From ChEMBL document CHEMBL3244413, “A phenazine analogue of actinomycin D” (1979)
pEC50: −log10 of the molar value. *1 amine or outer side, *2 acyl side, *3 side chain or, on linkers, in order; H or OH if unused. Where a SMILES comes first, the peptide text is derived from it. Bridges are numbered along the chain shown (N, C = ends). Roman numbers before positions name the chains, in order. [ ]: non-standard residue; d: D form. Actinocin(1to9) = Cc1c2oc3c(C)ccc(C(=O)[*:2])c3nc-2c(C(=O)[*:1])c(N)c1=O; NMeV = CN[C@H](C(=O)O)C(C)C; Sar = CNCC(=O)O

Columns and labels:
L1210 [1] = assay: Inhibition of RNA synthesis in mouse L1210 cells by [3H]-uridine incorporation assay; type: functional; details: read-out: ED50 (the source's name)
Calf thymus DNA = assay: Binding affinity to calf thymus DNA at 5.2 x 10^-6 M by CD spectra analysis; type: nucleic-acid assay; details: Bos taurus
L1210 [2] = assay: Inhibition of DNA synthesis in mouse L1210 cells by [3H]-thymidine incorporation assay; type: functional; details: read-out: ED50 (the source's name)

Work on `Cc1ccc(C(=O)N[C@@H]2C(=O)N[C@H](C(C)C)C(=O)N3CCC[C@H]3C(=O)N(C)CC(=O)N(C)[C@@H](C(C)C)C(=O)O[C@@H]2C)c2nc3c(C(=O)N[C@@H]4C(=O)N[C@H](C(C)C)C(=O)N5CCC[C@H]5C(=O)N(C)CC(=O)N(C)[C@@H](C(C)C)C(=O)O[C@@H]4C)cccc3nc12` yielded a pEC50 (L1210 [1]) of 6.64, a ΔTm (Calf thymus DNA) of 3.4 °C and a pEC50 (L1210 [2]) of 5.04.
`Cc1c2oc3c(C)ccc(C(=O)N[C@@H]4C(=O)N[C@H](C(C)C)C(=O)N5CCC[C@H]5C(=O)N(C)CC(=O)N(C)[C@@H](C(C)C)C(=O)O[C@@H]4C)c3nc-2c(C(=O)N[C@@H]2C(=O)N[C@H](C(C)C)C(=O)N3CCC[C@H]3C(=O)N(C)CC(=O)N(C)[C@@H](C(C)C)C(=O)O[C@@H]2C)cc1=O` gave a pEC50 (L1210 [1]) of 6.15, a ΔTm (Calf thymus DNA) of 9.9 °C and a pEC50 (L1210 [2]) of 4.20.
Compound `Cc1c2oc3c(C)ccc(C(=O)N[C@@H]4C(=O)N[C@H](C(C)C)C(=O)N5CCC[C@H]5C(=O)N(C)CC(=O)N(C)[C@@H](C(C)C)C(=O)O[C@@H]4C)c3nc-2c(C(=O)N[C@@H]2C(=O)N[C@H](C(C)C)C(=O)N3CCC[C@H]3C(=O)N(C)CC(=O)N(C)[C@@H](C(C)C)C(=O)O[C@@H]2C)c(N)c1=O` [DACTINOMYCIN] (I: T[dV]P[Sar][NMeV] / II: T[dV]P[Sar][NMeV]; ester I:1-I:C, II:1-II:C; linker I:N-II:N via Actinocin(1to9)) has a pEC50 (L1210 [1]) of 7.82, a ΔTm (Calf thymus DNA) of 7.1 °C and a pEC50 (L1210 [2]) of 6.22.
